pIC50: −log10 of the molar value. Where “and” joins values, the source holds several entries; their conditions need not be identical. Equal entries are not always repeated. Calls of active or inactive are those of the source.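 Rule for the calls: active = IC50 of 25 µM or lower, counted as toxic to worms; inactive = the rest.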 A value given as a limit tells only on which side of the number the result lay.

The series concerns C. elegans VP596 worm health composite score, 20-22 h. The series can be described thus: nematode toxicity of SKN-1 inhibitor analogs – whole organism, strain VP596, composite health score, round 3, cytotoxicity control for SKN-1 inhibitor project, SAR follow-up (AID 743062).
What is called IC50 is the midpoint of a concentration-inhibition curve. Take `Fc1ccc(-c2csc(C3CCNCC3)n2)cc1`: the IC50 was > 64 µM (inactive).
The pIC50 is the negative decadic logarithm of the IC50, by convention in mol/L. Consider `FC(F)(F)c1ccc(-c2csc(-c3ccncc3)n2)cc1`, for which the pIC50 was 4.69.
Turning to `Clc1ccc(-c2csc(C3CCNCC3)n2)cc1`, the IC50 was > 64 µM (inactive).
`Fc1ccc(-c2csc(-c3ccccc3)n2)cc1`: the IC50 was 28.4 µM (inactive).
Same read-out and setting: the result for `Fc1ccc(-c2csc(-c3ccncc3)n2)cc1` reads 53.6 µM (inactive).
Consider `Cc1ccc(-c2nc(-c3ccncc3)sc2C)cc1`, for which the IC50 was > 64 µM (inactive).
Same read-out and setting: as for `c1cc(-c2nc(-c3nccs3)cs2)ccn1`, the figure is > 64 µM (inactive); as for `N#Cc1ccc(-c2csc(-c3ccncc3)n2)cc1`, 37.2 µM (inactive).
Turning to `Clc1ccc(-c2csc(-c3ccncc3)n2)c(Cl)c1`, the IC50 was > 64 µM (inactive).
Turning to `Cc1ccc(-c2csc(-c3cccnc3)n2)cc1`, the IC50 was > 64 µM (inactive).
Take `CC(C)(C)c1csc(-c2ccncc2)n1`: the IC50 was > 64 µM (inactive).
In the case of `COc1ccc(-c2csc(C3CCNCC3)n2)cc1`, the IC50 was > 64 µM (inactive).
For `Cc1ccc(-c2csc(C3CCNCC3)n2)cc1`, the IC50 is > 64 µM (inactive).
On the same count and under the same terms, as for `COc1ccc(-c2csc(-c3cccnc3)n2)cc1`, the figure is 36.4 µM (inactive); as for `Clc1ccc(-c2csc(-c3ccncc3)n2)cc1Cl`, 10.5 µM and 33.7 µM (inactive); as for `COc1ccccc1-c1csc(-c2ccncc2)n1`, 48.4 µM (inactive).
For `Cc1sc(C2CCNCC2)nc1-c1ccccc1`, the IC50 is > 64 µM (inactive).
With `Cc1ccc(-c2csc(-c3ccccn3)n2)cc1`, the IC50 is > 64 µM (inactive).
Take `Fc1ccc(-c2csc(-c3cccnc3)n2)cc1`: the IC50 is 35.6 µM (inactive).
In the case of `Clc1ccccc1-c1csc(-c2ccncc2)n1`, the IC50 is 33.2 µM (inactive).
Consider `Clc1ccc(-c2csc(-c3ccccn3)n2)cc1`, for which the IC50 was 23.1 µM and > 64 µM (inactive).
As to `COc1ccc(-c2nc(-c3ccncc3)sc2C)cc1`, the IC50 was > 64 µM (inactive).
On the same count and under the same terms, the result for `c1cc(-c2nc(C3CC3)cs2)ccn1` reads > 64 µM (inactive).
`Cc1sc(-c2ccncc2)nc1-c1ccc(Cl)cc1`: the IC50 is > 64 µM (inactive).
For the compound `Clc1cccc(-c2csc(-c3ccncc3)n2)c1`, the pIC50 was 4.80.
For the compound `CCCc1cc(-c2nc(-c3ccc(C)cc3)cs2)ccn1`, the IC50 is > 64 µM (inactive).
Same read-out and setting: the result for `COc1cccc(-c2csc(-c3ccncc3)n2)c1` reads 55.7 µM (inactive).
Same read-out and setting: as for `Cc1ccccc1-c1csc(-c2ccncc2)n1`, the figure is 55.7 µM (inactive).
Consider `COc1ccc(-c2csc(-c3ccncc3)n2)cc1`, for which the IC50 is > 64 µM (inactive).
The same measure, in the same setting: as for `c1ccc(-c2nc(-c3cccnc3)cs2)cc1`, the figure is > 64 µM (inactive); as for `Cc1csc(-c2ccncc2)n1`, > 64 µM (inactive).
On to `Cc1sc(-c2ccncc2)nc1-c1ccc(F)cc1`, for which the IC50 is > 64 µM (inactive).
As for `Cc1ccc(-c2csc(-c3ccncc3)n2)cc1`, the IC50 is 54.6 µM (inactive).
The same measure, in the same setting: as for `CCCc1cc(-c2nc(-c3ccc(NS(C)(=O)=O)cc3)cs2)ccn1`, the figure is > 64 µM (inactive); as for `COc1ccc(-c2csc(-c3ccccc3)n2)cc1`, > 64 µM (inactive).
For `c1ccc(-c2csc(-c3ccncc3)n2)cc1`, the IC50 is 42.4 µM (inactive).
With `Clc1ccc(-c2csc(-c3ccccc3)n2)cc1`, the IC50 was > 64 µM (inactive).
As for `Cc1cccc(-c2csc(-c3ccncc3)n2)c1`, the IC50 was 50.8 µM (inactive).
As for `Cc1sc(-c2ccncc2)nc1-c1ccccc1`, the IC50 is 48.3 µM (inactive).
With `c1ccc(-c2csc(-c3cccnc3)n2)cc1`, the IC50 is 53.9 µM (inactive).
`c1ccc(-c2csc(C3CCNCC3)n2)cc1`: the IC50 was > 64 µM (inactive).
Take `Fc1ccc(-c2csc(-c3ccccn3)n2)cc1`: the IC50 was 42 µM (inactive).
`c1ccc(-c2csc(-c3ccccn3)n2)cc1`: the IC50 was > 64 µM (inactive).
For the compound `Clc1ccc(-c2csc(-c3cccnc3)n2)cc1`, the half-inhibitory concentration (IC50) was 11.1 µM and 29.4 µM (inactive).
Consider `COc1ccc(-c2csc(-c3ccccn3)n2)cc1`, for which the pIC50 was 4.67.
On to `Clc1ccc(-c2csc(-c3ccncc3)n2)cc1`, for which the IC50 was 32.7 µM (inactive) and 11.5 µM.
Still for that read-out and setting: as for `Cc1ccc(-c2csc(-c3ccccc3)n2)cc1`, the figure is > 64 µM (inactive).
Take `COC(=O)c1ccc(-c2csc(-c3ccncc3)n2)cc1`: the IC50 is > 64 µM (inactive).
